Consider 1 substance from PMC8810773, “Structure-based prediction of HDAC6 substrates validated by enzymatic assay reveals determinants of promiscuity and detects new potential substrates” (Scientific Reports, 2022).

This assay deals with T1, HDAC6 catalytic domain 2 (DD2) (Danio rerio, UniProt F8W4B7).
T1 construct: cloning the residues 440–798 of the Danio rerio HDAC6 gene into a modified pET28a(+) vector; 6xHis (N, cleaved yes); made in house; host or cells: E. coli BL21(DE3)
T1 sequence (F8W4B7 440-798): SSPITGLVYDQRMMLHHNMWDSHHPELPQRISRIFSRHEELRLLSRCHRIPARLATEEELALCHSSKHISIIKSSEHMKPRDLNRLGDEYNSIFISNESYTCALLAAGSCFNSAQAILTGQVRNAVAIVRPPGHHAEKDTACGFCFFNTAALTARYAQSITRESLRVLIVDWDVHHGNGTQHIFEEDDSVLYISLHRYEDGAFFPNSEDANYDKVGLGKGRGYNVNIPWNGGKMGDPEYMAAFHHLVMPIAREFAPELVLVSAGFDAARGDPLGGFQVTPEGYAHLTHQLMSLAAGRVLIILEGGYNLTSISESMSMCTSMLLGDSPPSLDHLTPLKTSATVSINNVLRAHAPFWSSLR
The experiment in a line: Enzyme-coupled acetate detection assay ('acetate assay') of HDAC6-catalyzed peptide deacetylation. It counts as biochemical. To be noted: Michaelis–Menten fit ± standard error; for kcat/KM: 10–2000 μM monoacetylated substrate, 0.1–1 μM HDAC6 DD2, 50 mM HEPES pH 8.0, 137 mM NaCl, 2.7 mM KCl, 1 mM MgCl2, 30 °C, NADH fluorescence, lower limits where KM below detection limit. An excerpt:
We used an enzyme-coupled acetate detection assay, or simply the ‘acetate assay’ (see “Methods”), developed and applied previously[12],[27], to measure the catalytic efficiency (kcat/KM) of HDAC6. We measured catalysis of deacetylation of acetylated peptides with sequences taken from known substrate proteins, as well as a set of selected peptides with reported acetylation sites that were available to us from previous studies (Table 1). […] To ensure an accurate determination of kcat/KM we measured HDAC6-catalyzed deacetylation at a minimum of four peptide concentrations, with at least two concentrations below KM (Fig. 1, squares). A total of 26 peptides which met these criteria formed our training set (D-TRAINING, Table 1). Additionally, we included 16 peptides where the value of kcat was measured accurately but the KM value was lower than the limit of detection for the acetate assay (~ 10–20 μM substrate, circles in Fig. 1) allowing only the determination of a lower limit for the value of kcat/KM (set D-CAPPED, see below and Table 1). The measured kcat/KM values span the range of three orders of magnitude.
Figure 1 Dependence of deacetylation rate on substrate concentration for two representative peptides catalyzed by HDAC6, measured using the acetate assay. The initial velocity for each substrate concentration was determined from a linear regression of a time course consisting of a minimum of three timepoints, standard error is shown. The kinetic parameters are determined from a nonlinear least square fit of the Michaelis–Menten equation to the data and are listed in Table 1. Black squares: example of data which met the criteria to produce accurate kcat/KM values. Green circles: example of overfit data resulting in calculation of a lower limit for kcat/KM, due to the KM being lower than the detection limit of the assay.
The coupled acetate detection assay or simply the ‘acetate assay’ was performed as previously described with a few modifications. Briefly, lyophilized peptides were re-suspended in water when possible or with minimal quantities of acid, base, or organic solvent to improve solubility. Peptide concentration was determined by one or more of the following methods: (1) measuring A280 using the extinction coefficients if the peptide contained a tryptophan or tyrosine, using the fluorescamine assay if the peptide contained a free lysine, (2) performing the bicinchoninic acid (BCA) assay using bovine serum albumin (BSA) as a standard, and (3) determining the concentration of acetate produced by complete deacetylation of the peptide by HDAC6.
Reactions containing 10–2000 μM monoacetylated peptides in 1× HDAC6 assay buffer (50 mM HEPES, pH 8.0, 137 mM NaCl, 2.7 mM KCl, 1 mM MgCl2) were initiated with 0.1–1 μM HDAC6 at 30 °C. […]

One may read the kcat/KM as the turnover number divided by the Michaelis constant. The kcat is the maximal rate divided by the concentration of active sites. Broadly, the Km is the substrate concentration at which the rate is half of its maximum. With “RKSTGG(K-ac)APRKQL [13-mer: RKSTGG(K-ac)APRKQL, H3 K14ac 13-mer peptide]”, the kcat/KM is recorded as 140,000±10,000 M^−1 s^−1. Besides, for the setting “listed as 13-mer peptide analog”, the kcat/KM was found to be 140000 M⁻¹ s⁻¹. For the same substance, the kcat (HDAC6 DD2, pH 8.0, 30 °C) worked out at 4.1 ± 0.3 s⁻¹. Where the note is “HDAC6 DD2, pH 8.0, 30 °C, detection limit ~10–20 μM substrate”, the Michaelis-Menten constant (Km) was 28 ± 5 µM.
